Assays:
[1] = target: T1, recombinant human mGluR4a receptors (Homo sapiens, UniProt Q14833); assay: mGluR4 assay on HEK-expressing human mGluR4: fluorescent cell based Ca2+ mobilization assay (FLIPR); conditions: HEK-293 cells expressing hmGluR4; enhancement of EC25 glutamate response; mean of at least three independent experiments in duplicate; read-out: Ca^2+ Flux (mean EC50)
T1 construct: expressed in transfected cells
Excerpt: mGluR4 Assay on HEK-Expressing Human mGluR4
The compounds of the present invention are positive allosteric modulators of mGluR4 receptor. Their activity was examined on recombinant human mGluR4a receptors by detecting changes in intracellular Ca^2+ concentration, using the fluorescent Ca^2+-sensitive dye Fluo-4-(AM) and a Fluorometric Imaging Plate Reader (FLIPR, Molecular Devices, Sunnyvale, Calif.).
The cDNA encoding the human metabotropic glutamate receptor (hmGluR4), (accession number NM_000841.1, NCBI Nucleotide database browser), was subcloned into an expression vector containing also the hygromycin resistance gene. In parallel, the cDNA encoding a G protein allowing redirection of the activation signal to intracellular calcium flux was subcloned into a different expression vector containing also the puromycin resistance gene. Transfection of both these vectors into HEK293 cells with PolyFect reagent (Qiagen) according to supplier's protocol, and hygromycin and puromycin treatment allowed selection of antibiotic resistant cells which had integrated stably one or more copies of the plasmids. Positive cellular clones expressing hmGluR4 were identified in a functional assay measuring changes in calcium fluxes in response to glutamate or selective known mGluR4 orthosteric agonists and antagonists. HEK-293 cells expressing hmGluR4 were maintained in media containing DMEM, dialyzed Fetal Calf Serum (10%), Glutamax™ (2 mM), Penicillin (100 units/mL), Streptomycin (100 μg/mL), Geneticin (100 μg/mL) and Hygromycin-B (40 μg/mL) and puromycin (1 μg/mL) at 37° C./5% CO2.
Human mGluR4HEK-293 cells were plated out 24 hours prior to FLIPR^384 assay in black-walled, clear-bottomed, poly-L-ornithine-coated 384-well plates at a density of 25,000 cells/well in a glutamine/glutamate free DMEM medium containing foetal bovine serum (10%), penicillin (100 units/mL) and streptomycin (100 μg/mL) at 37° C./5% CO2.
On the day of the assay, the medium was aspirated and the cells were loaded with a 3 μM solution of Fluo-4-AM (LuBioScience, Lucerne, Switzerland) in 0.03% pluronic acid. After 1 hour at 37° C./5% CO2, the non incorporated dye was removed by washing cell plate with the assay buffer and the cells were left in the dark at room temperature for […] before testing. All assays were performed in a pH 7.4 buffered-solution containing 20 mM HEPES, 143 mM NaCl, 6 mM KCl, 1 mM MgSO4, 1 mM CaCl2, 0.125 mM sulfapyrazone and 0.1% glucose.
After 10 s of basal fluorescence recording, various concentrations of the compounds of the invention were added to the cells. Changes in fluorescence levels were first monitored for 180 s in order to detect any agonist activity of the compounds. Then the cells were stimulated by an EC25 glutamate concentration for an additional 110 s in order to measure enhancing activities of the compounds of the invention. EC25 glutamate concentration is the concentration giving 25% of the maximal glutamate response.
The concentration-response curves of representative compounds of the present invention were generated using the Prism GraphPad software (Graph Pad Inc, San Diego, USA). The curves were fitted to a four-parameter logistic equation: (Y=Bottom+(Top−Bottom)/(1+10^((LogEC50−X)*Hill Slope) allowing the determination of EC50 values.
The Table 3 below represents the mean EC50 obtained from at least three independent experiments of selected molecules performed in duplicate.

T1 sequence (Q14833 33-912): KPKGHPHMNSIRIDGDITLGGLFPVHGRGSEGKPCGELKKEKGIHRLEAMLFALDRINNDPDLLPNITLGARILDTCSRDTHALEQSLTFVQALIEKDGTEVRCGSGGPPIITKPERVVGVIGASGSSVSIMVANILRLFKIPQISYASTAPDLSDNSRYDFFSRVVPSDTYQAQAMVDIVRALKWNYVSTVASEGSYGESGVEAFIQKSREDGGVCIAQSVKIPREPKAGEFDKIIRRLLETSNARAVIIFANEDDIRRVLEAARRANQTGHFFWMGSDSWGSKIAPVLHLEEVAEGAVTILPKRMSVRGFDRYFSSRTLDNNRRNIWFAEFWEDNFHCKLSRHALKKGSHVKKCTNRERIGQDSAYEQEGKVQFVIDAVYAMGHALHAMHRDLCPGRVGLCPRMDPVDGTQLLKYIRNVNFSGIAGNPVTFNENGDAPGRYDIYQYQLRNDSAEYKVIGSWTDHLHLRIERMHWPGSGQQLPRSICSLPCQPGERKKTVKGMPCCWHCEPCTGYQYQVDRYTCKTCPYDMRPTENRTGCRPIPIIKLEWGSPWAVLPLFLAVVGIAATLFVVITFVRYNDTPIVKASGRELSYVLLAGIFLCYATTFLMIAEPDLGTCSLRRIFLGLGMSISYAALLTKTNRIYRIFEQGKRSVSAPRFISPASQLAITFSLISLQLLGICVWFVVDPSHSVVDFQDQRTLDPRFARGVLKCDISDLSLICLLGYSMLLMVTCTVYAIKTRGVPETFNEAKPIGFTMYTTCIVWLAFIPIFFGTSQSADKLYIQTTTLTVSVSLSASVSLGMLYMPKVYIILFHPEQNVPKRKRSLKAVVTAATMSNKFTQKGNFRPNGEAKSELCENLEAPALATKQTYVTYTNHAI

melting point | EC50 [1] [nM] | SMILES
283 °C (dec.) | – | Cc1ccnc(Nc2nc3c(s2)CCc2[nH]ncc2-3)n1 [Compound 1-29, N-(4-Methylpyrimidin-2-yl)-5,6-dihydro-4H-thiazolo[4,5-e]indazol-2-amine]
248 °C (dec.) | – | c1n[nH]c2c1-c1nc(NC3CCCC3)sc1CCC2 [Compound 1-24, Cyclopentyl-(4,5,6,7-tetrahydro-3-thia-1,7,8-triaza-cyclopenta[e]azulen-2-yl)-amine]
300 °C (dec.) | – | Fc1cccnc1Nc1nc2c(s1)CCc1[nH]ncc1-2 [Compound 1-10, N-(3-Fluoropyridin-2-yl)-5,6-dihydro-4H-thiazolo[4,5-e]indazol-2-amine]
> 300 °C | 100 to 1000 | Fc1cccc(Nc2nc3c(s2)CCc2[nH]ncc2-3)n1 [Compound 1-6, N-(6-Fluoropyridin-2-yl)-5,6-dihydro-4H-thiazolo[4,5-e]indazol-2-amine]
297 °C (dec.) | – | Cc1ccnc(Nc2nc3c(s2)CCCc2[nH]ncc2-3)n1 [Compound 1-30, (4-Methyl-pyrimidin-2-yl)-(4,5,6,7-tetrahydro-3-thia-1,7,8-triaza-cyclopenta[e]azulen-2-yl)-amine]
300 °C (dec.) | 1000 to 10000 | COc1cccc(Nc2nc3c(s2)CCCc2[nH]ncc2-3)n1 [Compound 1-14, (6-Methoxy-pyridin-2-yl)-(4,5,6,7-tetrahydro-3-thia-1,7,8-triaza-cyclopenta[e]azulen-2-yl)-amine]
– | < 100 | c1ccc(Nc2nc3c(s2)CCCc2[nH]ncc2-3)nc1 [Compound 1-8, Pyridin-2-yl-(4,5,6,7-tetrahydro-3-thia-1,7,8-triaza-cyclopenta[e]azulen-2-yl)-amine]
198 to 221 °C | – | c1n[nH]c2c1-c1nc(NC3CCC3)sc1CCC2 [Compound 1-23, Cyclobutyl-(4,5,6,7-tetrahydro-3-thia-1,7,8-triaza-cyclopenta[e]azulen-2-yl)-amine]
178 to 182 °C | – | c1n[nH]c2c1-c1nc(NC3CC3)sc1CCC2 [Compound 1-22, Cyclopropyl-(4,5,6,7-tetrahydro-3-thia-1,7,8-triaza-cyclopenta[e]azulen-2-yl)-amine]
317 to 319 °C | – | CCC1Cc2[nH]ncc2-c2nc(Nc3ccccn3)sc21 (centres unmarked) [Compound 1-9, 4-Ethyl-N-(pyridin-2-yl)-5,6-dihydro-4H-thiazolo[4,5-e]indazol-2-amine]
166 to 168 °C | – | c1n[nH]c2c1-c1nc(NC3CCCC3)sc1CC2 [Compound 1-18, N-Cyclopentyl-5,6-dihydro-4H-thiazolo[4,5-e]indazol-2-amine]
314 °C (dec.) | – | Clc1cccc(Nc2nc3c(s2)CCCc2[nH]ncc2-3)n1 [Compound 1-16, (6-Chloro-pyridin-2-yl)-(4,5,6,7-tetrahydro-3-thia-1,7,8-triaza-cyclopenta[e]azulen-2-yl)-amine]
298 to 306 °C | – | CC1(C)Cc2[nH]ncc2-c2nc(Nc3ncccn3)sc21 [Compound 1-32, 4,4-Dimethyl-N-(pyrimidin-2-yl)-5,6-dihydro-4H-thiazolo[4,5-e]indazol-2-amine]
> 330 °C | – | c1cnc(Nc2nc3c(s2)CCc2[nH]ncc2-3)cn1 [Compound 1-17, N-(Pyrazin-2-yl)-5,6-dihydro-4H-thiazolo[4,5-e]indazol-2-amine]
288 to 293 °C | – | Cn1ccc(Nc2nc3c(s2)CCCc2[nH]ncc2-3)n1 [Compound 1-27, (1-Methyl-1H-pyrazol-3-yl)-(4,5,6,7-tetrahydro-3-thia-1,7,8-triaza-cyclopenta[e]azulen-2-yl)-amine]
314 °C (dec.) | – | Fc1ccc(Nc2nc3c(s2)CCCc2[nH]ncc2-3)nc1 [Compound 1-12, (5-Fluoro-pyridin-2-yl)-(4,5,6,7-tetrahydro-3-thia-1,7,8-triaza-cyclopenta[e]azulen-2-yl)-amine]
297 to 299 °C | < 100 | c1ccc(Nc2nc3c(s2)CCc2[nH]ncc2-3)nc1 [Compound 1-1, N-(Pyridin-2-yl)-5,6-dihydro-4H-thiazolo[4,5-e]indazol-2-amine]
167 to 168 °C | – | CC(C)C(=O)n1ncc2c1CCc1sc(Nc3ccccn3)nc1-2 [Compound 1-2, 2-Methyl-1-(2-(pyridin-2-ylamino)-4H-thiazolo[4,5-e]indazol-6(5H)-yl)propan-1-one]
312 °C (dec.) | – | Cc1cccc(Nc2nc3c(s2)CCCc2[nH]ncc2-3)n1 [Compound 1-11, (6-Methyl-pyridin-2-yl)-(4,5,6,7-tetrahydro-3-thia-1,7,8-triaza-cyclopenta[e]azulen-2-yl)-amine]
315 °C (dec.) | – | Fc1ccc(Nc2nc3c(s2)CCc2[nH]ncc2-3)nc1 [Compound 1-15, N-(5-Fluoropyridin-2-yl)-5,6-dihydro-4H-thiazolo[4,5-e]indazol-2-amine]
314 °C (dec.) | – | Fc1cccc(Nc2nc3c(s2)CCCc2[nH]ncc2-3)n1
> 300 °C | – | Clc1cccc(Nc2nc3c(s2)CCc2[nH]ncc2-3)n1 [Compound 1-4, N-(6-Chloropyridin-2-yl)-5,6-dihydro-4H-thiazolo[4,5-e]indazol-2-amine]
270 °C (dec.) | 100 to 1000 | Fc1ccc(F)c(Nc2nc3c(s2)CCc2[nH]ncc2-3)c1 [Compound 1-5, N-(2,5-Difluorophenyl)-5,6-dihydro-4H-thiazolo[4,5-e]indazol-2-amine]
> 373 °C | – | CC1Cc2[nH]ncc2-c2nc(Nc3ncccn3)sc21 (centres unmarked) [Compound 1-33, 4-Methyl-N-(pyrimidin-2-yl)-5,6-dihydro-4H-thiazolo[4,5-e]indazol-2-amine]
300 °C (dec.) | < 100 | Fc1cccnc1Nc1nc2c(s1)CCCc1[nH]ncc1-2 [Compound 1-13, (3-Fluoro-pyridin-2-yl)-(4,5,6,7-tetrahydro-3-thia-1,7,8-triaza-cyclopenta[e]azulen-2-yl)-amine]
144 to 146 °C | – | c1n[nH]c2c1-c1nc(NC3CCC3)sc1CC2 [Compound 1-20, N-Cyclobutyl-5,6-dihydro-4H-thiazolo[4,5-e]indazol-2-amine]
281 to 282 °C | – | c1cnc(Nc2nc3c(s2)CCc2[nH]ncc2-3)nc1 [Compound 1-26, N-(Pyrimidin-2-yl)-5,6-dihydro-4H-thiazolo[4,5-e]indazol-2-amine]
280 °C | 100 to 1000 | Cc1cccc(Nc2nc3c(s2)CCc2[nH]ncc2-3)n1 [Compound 1-3, N-(6-Methylpyridin-2-yl)-5,6-dihydro-4H-thiazolo[4,5-e]indazol-2-amine]
310 °C (dec.) | – | c1cnc(Nc2nc3c(s2)CCCc2[nH]ncc2-3)nc1 [Compound 1-25, Pyrimidin-2-yl-(4,5,6,7-tetrahydro-3-thia-1,7,8-triaza-cyclopenta[e]azulen-2-yl)-amine]

From patent US8697744B2, “Substituted 5,6-dihydro-4H-thiazolo[4,5-E]indazoles and their use as positive allosteric modulators of metabotropic glutamate receptors” (Addex Pharma S.A., priority 2009, dated 2014)
